The test system of one assay is Vero. Briefly: cells. In kind it is functional. The conditions noted are these: Chlorocebus sabaeus.
Assay [1] deals with T1, DNA repair protein RAD52 homolog (Homo sapiens, UniProt P43351).
T1 sequence (P43351 whole entry): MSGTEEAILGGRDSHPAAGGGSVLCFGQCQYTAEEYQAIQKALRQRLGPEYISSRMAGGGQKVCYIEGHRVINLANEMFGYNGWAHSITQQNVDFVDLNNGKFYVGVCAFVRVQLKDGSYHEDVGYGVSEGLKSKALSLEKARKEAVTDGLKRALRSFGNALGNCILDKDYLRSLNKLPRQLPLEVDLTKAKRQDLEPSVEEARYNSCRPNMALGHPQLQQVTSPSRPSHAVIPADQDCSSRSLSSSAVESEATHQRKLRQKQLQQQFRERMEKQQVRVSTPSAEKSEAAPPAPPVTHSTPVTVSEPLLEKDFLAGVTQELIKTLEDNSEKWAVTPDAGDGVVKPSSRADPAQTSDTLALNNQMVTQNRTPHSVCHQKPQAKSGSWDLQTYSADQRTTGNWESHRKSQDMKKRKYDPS
The assay is classed as functional, biochemical.

In assay [2] the target is T2, Fatty acid synthase (Homo sapiens, UniProt P49327). Briefly: inhibition of human FAS-TE enzyme activity – biochemical, endpoint fluorescence intensity, uHTS hits, dose response (AID 624327).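 Further: fluorescence from hydrolysis of an O-methyl fluorescein acyl ester substrate by the enzyme.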 The assay is classed as functional.
T2 sequence (P49327 whole entry): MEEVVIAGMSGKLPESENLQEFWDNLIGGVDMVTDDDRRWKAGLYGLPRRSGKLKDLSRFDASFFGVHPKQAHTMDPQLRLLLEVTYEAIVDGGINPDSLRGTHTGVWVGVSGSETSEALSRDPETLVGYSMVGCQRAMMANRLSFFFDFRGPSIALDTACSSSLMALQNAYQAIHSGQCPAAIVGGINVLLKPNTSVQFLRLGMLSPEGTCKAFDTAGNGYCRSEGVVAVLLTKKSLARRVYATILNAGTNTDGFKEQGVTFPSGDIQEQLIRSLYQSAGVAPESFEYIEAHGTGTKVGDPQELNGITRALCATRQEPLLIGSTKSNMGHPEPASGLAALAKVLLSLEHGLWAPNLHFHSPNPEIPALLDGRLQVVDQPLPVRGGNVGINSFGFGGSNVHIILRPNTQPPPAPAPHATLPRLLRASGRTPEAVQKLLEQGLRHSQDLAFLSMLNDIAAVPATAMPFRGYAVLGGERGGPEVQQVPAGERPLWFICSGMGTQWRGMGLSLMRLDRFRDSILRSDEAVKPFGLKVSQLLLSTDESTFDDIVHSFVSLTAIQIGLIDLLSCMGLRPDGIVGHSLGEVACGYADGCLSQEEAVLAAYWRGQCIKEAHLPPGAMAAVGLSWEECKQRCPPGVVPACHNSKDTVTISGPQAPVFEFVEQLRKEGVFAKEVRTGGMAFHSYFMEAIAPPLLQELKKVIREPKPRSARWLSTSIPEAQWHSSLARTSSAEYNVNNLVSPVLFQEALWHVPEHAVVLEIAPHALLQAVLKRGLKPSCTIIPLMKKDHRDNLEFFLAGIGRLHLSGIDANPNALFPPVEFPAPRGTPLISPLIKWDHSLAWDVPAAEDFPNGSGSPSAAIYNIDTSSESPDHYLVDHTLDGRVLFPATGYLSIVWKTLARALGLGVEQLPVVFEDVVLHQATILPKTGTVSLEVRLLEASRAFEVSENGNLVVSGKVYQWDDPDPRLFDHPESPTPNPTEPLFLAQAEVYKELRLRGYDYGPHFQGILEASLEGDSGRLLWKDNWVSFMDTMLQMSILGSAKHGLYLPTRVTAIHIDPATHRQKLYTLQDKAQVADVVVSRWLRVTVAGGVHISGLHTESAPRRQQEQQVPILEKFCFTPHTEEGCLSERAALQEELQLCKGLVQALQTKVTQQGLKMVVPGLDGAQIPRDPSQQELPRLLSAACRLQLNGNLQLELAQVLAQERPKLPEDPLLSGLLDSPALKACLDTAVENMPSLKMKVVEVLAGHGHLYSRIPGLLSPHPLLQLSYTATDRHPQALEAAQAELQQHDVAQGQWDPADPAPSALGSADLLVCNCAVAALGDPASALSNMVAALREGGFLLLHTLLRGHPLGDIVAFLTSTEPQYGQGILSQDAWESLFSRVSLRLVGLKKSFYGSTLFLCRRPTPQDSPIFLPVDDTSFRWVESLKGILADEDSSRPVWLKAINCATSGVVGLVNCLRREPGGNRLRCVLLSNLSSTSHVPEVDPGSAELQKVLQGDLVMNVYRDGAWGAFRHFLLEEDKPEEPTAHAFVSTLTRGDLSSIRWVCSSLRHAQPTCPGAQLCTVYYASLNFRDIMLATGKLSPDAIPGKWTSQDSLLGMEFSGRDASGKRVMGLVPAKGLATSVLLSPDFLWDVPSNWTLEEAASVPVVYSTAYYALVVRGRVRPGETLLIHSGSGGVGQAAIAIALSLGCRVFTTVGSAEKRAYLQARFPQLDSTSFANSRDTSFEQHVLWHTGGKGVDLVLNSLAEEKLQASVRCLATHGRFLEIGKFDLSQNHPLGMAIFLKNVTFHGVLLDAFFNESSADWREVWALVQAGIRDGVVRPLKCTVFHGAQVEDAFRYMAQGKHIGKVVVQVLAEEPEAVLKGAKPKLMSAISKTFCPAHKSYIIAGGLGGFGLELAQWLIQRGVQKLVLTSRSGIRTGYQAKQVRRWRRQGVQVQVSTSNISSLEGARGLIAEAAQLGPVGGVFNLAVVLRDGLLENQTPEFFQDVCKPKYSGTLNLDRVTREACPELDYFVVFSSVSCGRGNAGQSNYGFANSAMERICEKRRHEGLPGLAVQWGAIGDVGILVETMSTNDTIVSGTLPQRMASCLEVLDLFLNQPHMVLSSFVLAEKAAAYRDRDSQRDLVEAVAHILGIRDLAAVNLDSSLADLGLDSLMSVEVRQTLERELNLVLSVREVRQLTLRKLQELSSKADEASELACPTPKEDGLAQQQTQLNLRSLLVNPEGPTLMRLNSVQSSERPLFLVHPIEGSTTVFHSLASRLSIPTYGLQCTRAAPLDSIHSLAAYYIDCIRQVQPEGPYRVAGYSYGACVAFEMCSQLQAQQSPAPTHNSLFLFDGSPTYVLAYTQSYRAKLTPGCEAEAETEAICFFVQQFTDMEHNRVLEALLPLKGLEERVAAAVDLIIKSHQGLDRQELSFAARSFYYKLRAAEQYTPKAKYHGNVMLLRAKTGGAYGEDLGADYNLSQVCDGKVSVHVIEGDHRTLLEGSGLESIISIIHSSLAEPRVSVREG
The target in assay [3] is T2, Fatty acid synthase. Briefly: inhibition of human FAS-TE enzyme activity – biochemical, kinetic fluorescence intensity, dose response (AID 624326).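 Further: rate of fluorescence rise from hydrolysis of a fluorogenic O-methyl fluorescein ester substrate.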 In kind it is functional.
The target in assay [4] is T3, Corticotropin-releasing factor receptor 2/Corticotropin-releasing factor-binding protein (Homo sapiens, UniProt P24387+Q13324).
T3 sequence (Q13324 whole entry): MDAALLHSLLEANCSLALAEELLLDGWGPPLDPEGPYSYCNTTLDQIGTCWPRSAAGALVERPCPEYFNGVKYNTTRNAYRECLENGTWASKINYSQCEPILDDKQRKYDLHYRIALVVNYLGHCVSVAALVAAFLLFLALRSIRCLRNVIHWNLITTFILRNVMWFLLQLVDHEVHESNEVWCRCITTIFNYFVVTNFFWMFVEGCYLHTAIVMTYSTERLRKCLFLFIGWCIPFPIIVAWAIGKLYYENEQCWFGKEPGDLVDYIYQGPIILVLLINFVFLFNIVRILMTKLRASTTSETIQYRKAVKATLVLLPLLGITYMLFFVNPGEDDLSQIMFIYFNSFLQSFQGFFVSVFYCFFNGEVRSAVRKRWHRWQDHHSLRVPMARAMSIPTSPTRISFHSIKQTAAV
T3 sequence (P24387 whole entry): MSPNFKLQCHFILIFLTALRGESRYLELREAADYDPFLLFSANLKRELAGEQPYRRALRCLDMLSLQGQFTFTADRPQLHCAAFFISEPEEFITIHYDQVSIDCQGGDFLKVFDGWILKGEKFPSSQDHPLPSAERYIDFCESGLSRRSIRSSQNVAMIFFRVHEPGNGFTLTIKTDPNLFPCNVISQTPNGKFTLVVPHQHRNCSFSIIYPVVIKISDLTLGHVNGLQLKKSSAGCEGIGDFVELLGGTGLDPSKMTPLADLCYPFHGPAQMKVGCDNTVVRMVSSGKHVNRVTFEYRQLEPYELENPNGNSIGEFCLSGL
Briefly: activators of CRF receptor 2 with binding protein – uHTS hits, confirmation (AID 602473). The assay is classed as functional. Particulars: read-out: EC50_Mean.

Assay [5] has as its target T4, Heat shock factor protein 1 (Mus musculus, UniProt P38532).
T4 sequence (P38532 whole entry): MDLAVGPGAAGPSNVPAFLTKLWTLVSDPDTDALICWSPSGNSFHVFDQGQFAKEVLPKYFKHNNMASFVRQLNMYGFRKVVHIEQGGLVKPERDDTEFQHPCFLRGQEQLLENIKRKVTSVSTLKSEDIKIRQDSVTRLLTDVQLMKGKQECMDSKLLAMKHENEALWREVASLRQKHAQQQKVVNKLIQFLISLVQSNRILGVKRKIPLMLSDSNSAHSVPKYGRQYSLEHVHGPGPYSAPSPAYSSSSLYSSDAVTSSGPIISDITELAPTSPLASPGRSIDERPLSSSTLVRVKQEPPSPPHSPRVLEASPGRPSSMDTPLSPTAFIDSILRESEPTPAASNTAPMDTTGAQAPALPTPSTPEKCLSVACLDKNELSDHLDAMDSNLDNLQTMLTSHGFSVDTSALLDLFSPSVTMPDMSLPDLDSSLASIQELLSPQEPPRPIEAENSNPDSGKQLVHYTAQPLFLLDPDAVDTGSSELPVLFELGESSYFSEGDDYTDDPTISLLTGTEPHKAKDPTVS
Briefly: enhancement of HSF1-driven luciferase signal – cell-based, NIH3T3, luminescence, dose retest, confirmation (AID 435004).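 Further: stress induced by proteasome inhibitor MG132 added 30 min after compound; luciferase reporter driven by HSF1 response element in NIH3T3 cells; actives raise luminescence as potentiators of the MG132 stress response.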 In kind it is functional.

Assay [6] concerns the target T3, Corticotropin-releasing factor receptor 2/Corticotropin-releasing factor-binding protein. The assay can be described thus: Dose Response confirmation of uHTS hits for small molecule antagonists of the CRF-binding protein and CRF-R2 receptor complex. Particulars: read-out: IC50_Mean. In kind it is functional.
Assay [7] can be described thus: blockers of CRF-binding protein–CRF-R2 complex – cell-based, uHTS hits, 384-well, dose response (AID 651639). The assay is classed as functional, Homo sapiens. The conditions noted are these: read-out: IC50_Mean.
Another assay has as its target Estrogen receptor beta (Homo sapiens, UniProt Q92731).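 Further: recombinant ER-beta bound to coactivator SRC1 peptide in presence of estradiol agonist; inhibitors block coactivator peptide binding and lower the FRET signal.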
The target in another assay is Prothrombin (Homo sapiens, UniProt P00734). Briefly: Thrombin 1536 HTS Dose Response Confirmation. [Related pubchem assays: 1046 (Thrombin 1536 HTS; hits were confirmed in this assay)]. The assay is classed as functional.
Another assay concerns the target T5, Cytochrome P450 1A2 (Homo sapiens, UniProt P05177).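 Further: PubChem cytochrome P450 panel assay, CYP1A2 panel member.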
T5 sequence (P05177 whole entry): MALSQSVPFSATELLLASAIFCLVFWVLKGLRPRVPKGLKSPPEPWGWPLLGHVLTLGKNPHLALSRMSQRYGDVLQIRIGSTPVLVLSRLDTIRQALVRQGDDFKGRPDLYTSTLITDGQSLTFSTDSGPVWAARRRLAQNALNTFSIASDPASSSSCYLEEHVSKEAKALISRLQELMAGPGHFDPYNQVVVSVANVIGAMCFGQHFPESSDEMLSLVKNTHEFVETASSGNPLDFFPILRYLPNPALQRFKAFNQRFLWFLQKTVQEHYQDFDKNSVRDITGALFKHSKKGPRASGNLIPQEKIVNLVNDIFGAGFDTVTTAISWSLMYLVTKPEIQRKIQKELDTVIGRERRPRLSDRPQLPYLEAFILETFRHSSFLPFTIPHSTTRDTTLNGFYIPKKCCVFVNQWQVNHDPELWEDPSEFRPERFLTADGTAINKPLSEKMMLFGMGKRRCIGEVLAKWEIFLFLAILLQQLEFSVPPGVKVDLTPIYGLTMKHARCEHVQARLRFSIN

The target of another assay is Cytochrome P450 2C9 (Homo sapiens, UniProt P11712).
Sequence of Cytochrome P450 2C9 (P11712 whole entry): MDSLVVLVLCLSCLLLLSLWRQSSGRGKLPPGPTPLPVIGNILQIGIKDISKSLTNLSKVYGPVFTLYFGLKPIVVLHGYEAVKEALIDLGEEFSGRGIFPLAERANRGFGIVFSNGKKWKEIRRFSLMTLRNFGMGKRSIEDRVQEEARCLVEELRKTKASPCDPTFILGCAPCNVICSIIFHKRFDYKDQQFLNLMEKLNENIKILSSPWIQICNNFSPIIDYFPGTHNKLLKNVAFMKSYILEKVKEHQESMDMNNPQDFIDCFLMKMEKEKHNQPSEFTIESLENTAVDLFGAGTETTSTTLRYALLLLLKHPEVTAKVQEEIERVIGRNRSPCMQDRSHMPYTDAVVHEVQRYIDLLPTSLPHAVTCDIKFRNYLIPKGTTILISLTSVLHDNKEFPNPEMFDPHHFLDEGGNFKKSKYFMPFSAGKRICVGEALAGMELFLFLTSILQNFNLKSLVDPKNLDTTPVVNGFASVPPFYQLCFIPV
A short description of assay [8]: viability of uninfected HEp-2 cells – cell-based, HTS, cytotoxicity control for RSV inhibitor project, dose response (AID 2410). In kind it is functional. Particulars: human respiratory syncytial virus.
Assay [9] relates to Streptococcus sp. 'group A'. The assay can be described thus: Streptococcus pyogenes SK(-)GAS viability under kanamycin – luminescence, BacTiterGlo, confirmation, counter-screen for streptokinase expression inhibitor project, dose response (AID 1900). In kind it is functional, organism-based.
The next assay deals with T6, Streptokinase A (Streptococcus pyogenes serotype M1, UniProt P10520).
T6 sequence (P10520 whole entry): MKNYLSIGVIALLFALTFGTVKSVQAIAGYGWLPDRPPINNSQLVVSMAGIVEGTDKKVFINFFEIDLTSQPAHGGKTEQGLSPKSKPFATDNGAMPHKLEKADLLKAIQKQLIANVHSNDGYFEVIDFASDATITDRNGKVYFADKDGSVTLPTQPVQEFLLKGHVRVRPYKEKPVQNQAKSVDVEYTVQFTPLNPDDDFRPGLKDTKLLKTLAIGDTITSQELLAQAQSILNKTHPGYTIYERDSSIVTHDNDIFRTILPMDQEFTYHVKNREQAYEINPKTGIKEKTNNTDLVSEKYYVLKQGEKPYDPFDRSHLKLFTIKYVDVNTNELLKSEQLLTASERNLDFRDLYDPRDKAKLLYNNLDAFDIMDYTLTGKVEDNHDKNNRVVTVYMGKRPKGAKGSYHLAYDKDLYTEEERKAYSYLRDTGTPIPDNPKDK
Briefly: viability-normalized secreted streptokinase activity reduction – plasminogen activation absorbance, OD405, dose response (AID 1914).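 Further: secreted streptokinase activity via plasminogen activation per viability signal from cell pellet.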 The assay is classed as functional, Streptococcus pyogenes M1 GAS.

The next assay concerns Streptococcus. Briefly: GAS UMAA2166 growth inhibition – luminescence, BacTiterGlo, counter-screen for streptokinase expression inhibitor project, dose response (AID 1915).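 Further: potency for reduction of bacterial viability or growth.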 In kind it is functional, organism-based.

Active and inactive are the calls of the source. A value given as a limit tells only on which side of the number the result lay.

Experimental findings from ChEMBL document CHEMBL1201862, “PubChem BioAssay data set” (2004) are described below.

Sequence of Estrogen receptor beta (Q92731 whole entry): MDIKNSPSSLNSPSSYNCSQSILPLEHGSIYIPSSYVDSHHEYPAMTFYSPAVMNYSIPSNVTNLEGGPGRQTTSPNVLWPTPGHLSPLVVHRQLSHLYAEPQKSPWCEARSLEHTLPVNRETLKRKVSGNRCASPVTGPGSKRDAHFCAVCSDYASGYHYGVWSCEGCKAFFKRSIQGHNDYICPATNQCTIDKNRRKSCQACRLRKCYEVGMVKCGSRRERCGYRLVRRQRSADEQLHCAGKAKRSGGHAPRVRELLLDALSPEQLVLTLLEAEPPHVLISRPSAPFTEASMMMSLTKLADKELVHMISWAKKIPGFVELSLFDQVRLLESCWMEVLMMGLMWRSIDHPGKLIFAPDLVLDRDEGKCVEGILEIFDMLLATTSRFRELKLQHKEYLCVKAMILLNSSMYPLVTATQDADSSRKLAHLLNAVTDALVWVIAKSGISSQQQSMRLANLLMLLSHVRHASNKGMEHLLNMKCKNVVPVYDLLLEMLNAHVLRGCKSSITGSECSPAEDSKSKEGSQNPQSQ

`CCCCc1nc2sc3c(SCCN(C)C)ncnc3c2c2c1CCC2`: the CC50 with Vero was 20.6 µM (active). Moreover, the concentration at half-maximal activity (AC50) in assay [1] was 19.7 µM (active).

On to `COc1cccc(NC(=O)CN2C(=O)CSc3ccc(S(=O)(=O)N4CCC(C)CC4)cc32)c1`, for which the IC50 on Fatty acid synthase [2] was 6.24 µM (active); at Fatty acid synthase [3], 2.44 µM (active).

Take `CC(C)N1CCc2c(sc(NC(=O)c3cc4cc([N+](=O)[O-])ccc4s3)c2C(N)=O)C1`: in assay [4], the EC50 is > 53 µM (inactive). Also, the half-maximal activity concentration (AC50) in assay [1] is 10.3 µM (active).

As to `O=[N+]([O-])c1ccc(Sc2ccccc2)nc1`, the results for the EC50 in assay [5] and in [4] were > 260 µM (inactive) and > 53 µM (inactive), respectively. In addition, the IC50 in assay [6] is < 0.368 µM (active); in assay [7], 5.42 µM (active).

On to `O=C(Nc1nccs1)c1ccc2nccnc2c1`, for which the IC50 at Estrogen receptor beta is 14.9 µM (active).

For `O=C(Cn1nc(-c2ccco2)ccc1=O)Nc1cc(C(F)(F)F)ccc1Cl`, the IC50 was 11.8 µM (active) on Fatty acid synthase [2] and 13.1 µM (active) at Fatty acid synthase [3].

For `Cc1nc(Sc2ccccc2)c(C#N)c(C)c1[N+](=O)[O-]`, the IC50 at Fatty acid synthase [2] is 13.9 µM (active); at Fatty acid synthase [3] it was 8.81 µM (active).

With `CCCC(=O)n1nc(-c2ccccc2)nc1SC`, the IC50 on Prothrombin is 0.935 µM (active).

Regarding `COC(=O)c1ccc(CSc2nc3c(c(=O)n2-c2ccc(Br)cc2)SCC3)o1`, the figures for the IC50 in assay [6] and in assay [7] were 7.86 µM (active) and 15.4 µM (active), respectively. Besides, the EC50 in [4] is > 53 µM (inactive).

As to `COC(=O)c1nnc(NC(=O)c2ccccc2)[nH]1`, the IC50 on Prothrombin is 0.0545 µM (active). Besides, the AC50 at Cytochrome P450 1A2 is 17.8 µM (inconclusive); on Cytochrome P450 2C9 it was 3.98 µM (inconclusive).

With `CC(C)c1ccc(S(=O)(=O)c2nnn3c2nc(NCC2CCCO2)c2ccccc23)cc1` (centres undefined), the IC50 at Fatty acid synthase [2] was 1.72 µM (active); on Fatty acid synthase [3] it was 1.34 µM (active).

For `Clc1cccc(-c2nnc(SC/C=C/c3ccccc3)n2Cc2ccco2)c1`, the IC50 was 4.74 µM (active) in [6] and > 20 µM (inactive) in [7]. In [4], the EC50 was > 53 µM (inactive).

Take `CC1CCN(S(=O)(=O)c2ccc3c(c2)c(=O)c(C(=O)NCc2ccco2)cn3C)CC1`: the IC50 on Fatty acid synthase [2] is 3.81 µM (active); on Fatty acid synthase [3] it was 2.4 µM (active).

`COC(=O)c1sc(-c2ccc(C(C)(C)C)cc2)cc1NC(=O)CSCC(=O)O`: the CC50 in assay [8] is 15.7 µM (active). Also, the EC50 was 8.94 µM (active) in assay [9], 6.69 µM (active) on Streptokinase A, 12.1 µM (active) in the assay with Streptococcus and 36.8 µM (active) in [4]. The IC50 in [6] was 4.1 µM (active); in assay [7] it was 14.1 µM (active).

Regarding `Nc1nonc1NC(=O)CSc1ncccc1C(=O)O`, on Estrogen receptor beta, the IC50 was > 50 µM (not active).

Turning to `COc1ccccc1NC(=O)c1sc2ncn(Cc3cccc(C)c3)c(=O)c2c1C`, the IC50 on Prothrombin is > 50 µM (not active).

On to `CCn1cc(C(=O)NCc2ccco2)c(=O)c2cc(S(=O)(=O)N3CCCC3)ccc21`, for which the IC50 on Prothrombin is 1.31 µM (active).
